Experimental findings from ChEMBL document CHEMBL2069296, “A novel series of G-quadruplex ligands with selectivity for HIF-expressing osteosarcoma and renal cancer cell lines” (Bioorg Med Chem Lett, 2012) are described below.

The structures appear in SMILES notation. Active and inactive are the calls of the source. The calls are words filed in the database; no cut-off is given here.

The test system of one experiment is HOS-TE85. As to the kind of experiment: Antiproliferative activity against human MNNG-HOS cells after 96 hrs by SRB assay. Type of experiment: functional, cell-based. Conditions: HOS-TE85, 96 h.
A further experiment relates to U2OS. As to the kind of experiment: Antiproliferative activity against human U2OS cells after 96 hrs by SRB assay. Type of experiment: functional, cell-based.
The test system of another experiment is SAOS-2. As to the kind of experiment: Antiproliferative activity against human Saos2 cells after 96 hrs by SRB assay. Type of experiment: functional, cell-based. The conditions noted are these: SAOS-2, 96 h.
The subject of a further experiment is OST. As to the kind of experiment: Antiproliferative activity against human OST cells after 96 hrs by SRB assay. It is filed as functional, cell-based.
A short description of experiment [1]: Antiproliferative activity against human TC71 cells after 96 hrs by SRB assay. It is filed as functional, cell-based. Conditions: TC-71, 96 h.
Experiment [2] in a line: Antiproliferative activity against human TC32 cells after 96 hrs by SRB assay. It is filed as functional, cell-based. The conditions noted are these: TC-32, 96 h.
In the next experiment the test system is MCF7. In words: Antiproliferative activity against human MCF7 cells after 96 hrs by SRB assay. Type of experiment: functional, cell-based. The conditions noted are these: MCF7, 96 h.
The next experiment relates to A549. In words: Antiproliferative activity against human A549 cells after 96 hrs by SRB assay. Type of experiment: functional, cell-based. Conditions: A549, 96 h.
The test system of a further experiment is MIA PaCa-2. In words: Antiproliferative activity against human MIAPaCa2 cells after 96 hrs by SRB assay. Type of experiment: functional, cell-based. Conditions: MIA PaCa-2, 96 h.
The test system of a further experiment is PANC-1. In words: Antiproliferative activity against human PANC1 cells after 96 hrs by SRB assay. The conditions noted are these: PANC-1, 96 h. It is filed as functional, cell-based.
Another experiment relates to PC-3. As to the kind of experiment: Antiproliferative activity against human PC3 cells after 96 hrs by SRB assay. Conditions: PC-3, 96 h. Type of experiment: functional, cell-based.
Experiment [3] in a line: Antiproliferative activity against human 786-O cells after 96 hrs by SRB assay. It is filed as functional, cell-based. Conditions: 786-0, 96 h.
The next experiment concerns A498. In words: Antiproliferative activity against human A498 cells after 96 hrs by SRB assay. It is filed as functional, cell-based. The conditions noted are these: A498, 96 h.
The nature of experiment [4]: Antiproliferative activity against human RCC4 cells after 96 hrs by SRB assay. It is filed as functional, cell-based. The conditions noted are these: RCC4, 96 h.
Experiment [5] can be described thus: Antiproliferative activity against human RCC4/VHL cells after 96 hrs by SRB assay. Type of experiment: functional, cell-based.
Experiment [6] can be described thus: Antiproliferative activity against human TC135 cells after 96 hrs by SRB assay. Type of experiment: functional, cell-based. Conditions: TC135, 96 h.
The test system of a further experiment is WI-38. In words: Cytotoxicity against human WI38 after 96 hrs by SRB assay. It is filed as cell-based. The conditions noted are these: WI-38, 96 h.
The test system of another experiment is HOS. In words: Antiproliferative activity against human HOS cells after 96 hrs by SRB assay. It is filed as functional, cell-based.
The subject of another experiment is MG-63. As to the kind of experiment: Antiproliferative activity against human MG63 cells after 96 hrs by SRB assay. Conditions: MG-63, 96 h. It is filed as functional, cell-based.
The subject of another experiment is HPAC. As to the kind of experiment: Antiproliferative activity against human HPAC cells after 96 hrs by SRB assay. Type of experiment: functional, cell-based.
The subject of experiment [7] is Nucleic Acid. As to the kind of experiment: Binding affinity to HIF1alpha DNA by surface plasmon resonance assay. Type of experiment: nucleic-acid assay.
The test system of experiment [8] is Nucleic Acid. As to the kind of experiment: Binding affinity to HIF2alpha DNA by surface plasmon resonance assay. Type of experiment: nucleic-acid assay.
Experiment [9] relates to Nucleic Acid. In words: Binding affinity to 5'-GGGGCGGGCACGGGGCGGG-3' DNA by surface plasmon resonance. It is filed as nucleic-acid assay.

In the case of `CCN(CC)CCC(=O)Nc1cccc(-n2cc(-c3ccc4ccc(-c5cn(-c6cccc(NC(=O)CCN(CC)CC)c6)nn5)cc4c3)nn2)c1`, the IC50 in the experiment on HOS-TE85 came out at 3.1 µM; with U2OS it was 7.8 µM; in the experiment on SAOS-2, 2.8 µM; in the experiment with OST, 2.1 µM; in experiment [1], 28 µM; in [2], 2.5 µM. In addition, the IC50 in the experiment on MCF7 amounted to 21 µM; in the experiment on A549 it was 29 µM; in the experiment with MIA PaCa-2, 17.5 µM; in the experiment on PANC-1 it was 7.4 µM; with PC-3, 7.8 µM; in experiment [3], 9.8 µM. In addition, the IC50 is 9.9 µM in the experiment on A498; 1.6 µM in experiment [4]; 2.7 µM in experiment [5]; 2.6 µM in [6]; 10.6 µM with WI-38.

As to `CCN(CC)CCC(=O)Nc1ccc(-n2cc(-c3ccc4ccc(-c5cn(-c6ccc(NC(=O)CCN(CC)CC)cc6)nn5)cc4c3)nn2)cc1`, the IC50 amounted to 5.2 µM in the experiment with HOS; 7 µM in the experiment with MG-63; 2.8 µM with HOS-TE85; 5.1 µM in the experiment with U2OS; 2.5 µM in the experiment with SAOS-2; 1.9 µM in the experiment with OST. The IC50 in [1] worked out at 7.5 µM; in experiment [2], 2.1 µM; with MCF7, 9.2 µM; with A549, 7.6 µM; in the experiment on MIA PaCa-2, 12.5 µM; in the experiment on PANC-1, 8 µM. Further, the IC50 is 6.9 µM with HPAC; 8.2 µM with PC-3; 5.6 µM in [3]; 6.9 µM with A498; 1.9 µM in experiment [4]; 2.4 µM in [5]. Also, the IC50 in [6] is 2.2 µM; in the experiment on WI-38 it was 7.4 µM.

Take `O=C(CCN1CCCC1)Nc1ccc(-n2cc(-c3ccc4ccc(-c5cn(-c6ccc(NC(=O)CCN7CCCC7)cc6)nn5)cc4c3)nn2)cc1`: the IC50 turned out to be 0.6 µM in the experiment on HOS; 2.8 µM with MG-63; 2.1 µM with HOS-TE85; 2.2 µM with U2OS; 1.8 µM with SAOS-2; 0.9 µM in the experiment on OST. Moreover, the IC50 amounted to 16 µM in [1]; 0.7 µM in [2]; 8.1 µM with MCF7; 17 µM with A549; 7.2 µM with MIA PaCa-2; 7.8 µM in the experiment on PANC-1. Besides, the IC50 with HPAC turned out to be 1.9 µM; in the experiment with PC-3, 7.1 µM; in experiment [3] it was 6.5 µM; in the experiment with A498, 1.9 µM; in experiment [4], 2.5 µM; in experiment [5], 2.6 µM. The IC50 is 2.2 µM in experiment [6] and 3.9 µM in the experiment on WI-38.

As for `CCN(CC)CC(=O)Nc1ccc(-n2cc(-c3ccc4ccc(-c5cn(-c6ccc(NC(=O)CN(CC)CC)cc6)nn5)cc4c3)nn2)cc1`, the K with Nucleic Acid [7] was found to be 1.25 ×10⁷ /M; in the experiment with Nucleic Acid [8] it was 0.15 ×10⁷ /M. Further, the K result with Nucleic Acid [9] is “inactive”. The IC50 was 75 µM in the experiment on HOS; 81 µM in the experiment on MG-63; 25 µM with HOS-TE85; 22 µM in the experiment on U2OS; 95 µM in the experiment on SAOS-2; 37 µM with OST. In addition, the IC50 in experiment [1] was greater than 100 µM; in [2], 29 µM; in the experiment with MCF7 it was 100 µM; in the experiment on A549 it was greater than 100 µM; in the experiment with MIA PaCa-2 it was greater than 100 µM; in the experiment with PANC-1, greater than 100 µM. Also, the IC50 in the experiment on HPAC is 52 µM; with PC-3, greater than 100 µM; in experiment [3], 23 µM; with A498, 8 µM; in [4] it was 22 µM; in experiment [5], 26 µM. Further, the IC50 in experiment [6] came to 23 µM; in the experiment with WI-38 it was 9 µM.

Turning to `O=C(CN1CCCC1)Nc1cccc(-n2cc(-c3ccc4ccc(-c5cn(-c6cccc(NC(=O)CN7CCCC7)c6)nn5)cc4c3)nn2)c1`, the IC50 in the experiment on HOS was 2 µM; in the experiment on MG-63, 16 µM; in the experiment on HOS-TE85, 9 µM; in the experiment with U2OS it was 22 µM; with SAOS-2, 5.8 µM; with OST, 7.1 µM. Also, the IC50 in [1] was 75 µM; in [2], 3 µM; in the experiment with MCF7, greater than 100 µM; in the experiment with A549, 72 µM; in the experiment with MIA PaCa-2, greater than 100 µM; in the experiment with PANC-1 it was 29 µM. The IC50 with HPAC amounted to 9 µM; with PC-3 it was 25 µM; in experiment [3] it was 6.9 µM; in the experiment on A498, 3.1 µM; in experiment [4], 3.2 µM; in experiment [5], 2.4 µM. Further, the half-inhibitory concentration (IC50) in [6] was 11 µM; in the experiment on WI-38, 17 µM.

`O=C(CCN1CCCC1)Nc1cccc(-n2cc(-c3ccc4ccc(-c5cn(-c6cccc(NC(=O)CCN7CCCC7)c6)nn5)cc4c3)nn2)c1`: the IC50 was 7.1 µM in the experiment on HOS; greater than 100 µM with MG-63; 2.9 µM with HOS-TE85; 13 µM in the experiment on U2OS; 2.7 µM in the experiment on SAOS-2; 2.2 µM with OST. The IC50 was 8.9 µM in experiment [1]; 1.9 µM in experiment [2]; 30 µM with MCF7; 76 µM in the experiment with A549; 11 µM with MIA PaCa-2; 7.1 µM in the experiment on PANC-1. The IC50 with HPAC came out at 8 µM; in the experiment on PC-3, 9.4 µM; in experiment [3], 5.85 µM; in the experiment on A498, 7.5 µM; in experiment [4], 4.2 µM; in experiment [5], 6.8 µM. Besides, the IC50 was 2.5 µM in experiment [6] and 18 µM in the experiment on WI-38.

Consider `O=C(CN1CCCCC1)Nc1cccc(-n2cc(-c3ccc4ccc(-c5cn(-c6cccc(NC(=O)CN7CCCCC7)c6)nn5)cc4c3)nn2)c1`, for which the K in the experiment on Nucleic Acid [7] stood at 0.81 ×10⁷ /M; in the experiment on Nucleic Acid [8], 0.59 ×10⁷ /M. Further, the K entry with Nucleic Acid [9] is “inactive”. Besides, the IC50 with HOS was 47 µM; with MG-63, 90 µM; in the experiment on HOS-TE85, 23 µM; with U2OS, 22 µM; with SAOS-2 it was 16 µM; in the experiment with OST, 37 µM. The IC50 in experiment [1] was 81 µM; in experiment [2] it was 6.6 µM; in the experiment on MCF7, greater than 100 µM; in the experiment with A549, greater than 100 µM; in the experiment on MIA PaCa-2, greater than 100 µM; in the experiment with PANC-1, greater than 100 µM. The IC50 was 96 µM in the experiment with HPAC; greater than 100 µM with PC-3; 17.5 µM in [3]; 19 µM in the experiment with A498; 2.6 µM in experiment [4]; 2.7 µM in experiment [5]. The IC50 in experiment [6] was 14 µM; in the experiment on WI-38, greater than 10 µM.

For `O=C(CN1CCCC1)Nc1ccc(-n2cc(-c3ccc4ccc(-c5cn(-c6ccc(NC(=O)CN7CCCC7)cc6)nn5)cc4c3)nn2)cc1`, the K with Nucleic Acid [7] was determined as 1.49 ×10⁷ /M; in the experiment with Nucleic Acid [8] it was 0.97 ×10⁷ /M. Moreover, the K result in the experiment on Nucleic Acid [9] is “inactive”. Also, the IC50 is 2.6 µM with HOS; greater than 10 µM in the experiment with MG-63; 9.1 µM in the experiment on HOS-TE85; 18 µM with U2OS; 9 µM in the experiment on SAOS-2; 14 µM with OST. For the same compound, the IC50 in experiment [1] was 14 µM; in [2], 2.5 µM; in the experiment on MCF7 it was greater than 100 µM; in the experiment with A549, 80.5 µM; with MIA PaCa-2, 25.5 µM; with PANC-1, 88 µM. Besides, the IC50 in the experiment on HPAC stood at 9.5 µM; in the experiment on PC-3, 91 µM; in experiment [3], 2.6 µM; in the experiment on A498, 3.5 µM; in experiment [4] it was 5.1 µM; in experiment [5] it was 6.4 µM. Further, the values for the IC50 (in experiment [6]; in the experiment on WI-38) were 3.2 µM and 26 µM, respectively.
